The series can be described thus: Variable temperature FTIR and 2D IR, tautomerism in aqueous solution. It counts as physicochemical. The note with it: deuterated 0.5 M phosphate buffer pD 7.9, 10-80° C. The method, then: For both 1D FTIR and 2D IR experiments, the H/D exchanged KP1212 was dissolved at a concentration of 20 mg/ml (88 mM) in 0.5 M phosphate buffer pD (pH reading in D2O) 7.9. About 25 μl of sample solution was sandwiched between two CaF2 windows separated by a 50 μm TEFLON spacer. Variable-temperature FTIR spectra were collected using Nicolet 380 FTIR spectrometer at 1.0 cm^−1 resolution with 16 scans per spectrum. Spectra for both the sample and the D2O were collected with the same procedure and the solvent spectra were subtracted from the sample spectra.
Absorptive 2D IR spectra were collected using a 2D IR spectrometer as described in detail previously (Chung, H. S., Khalil, M., Smith, A. W. & Tokmakoff, A. Transient two-dimensional IR spectrometer for probing nanosecond temperature-jump kinetics. Rev. Sci. Instrum. 78, 063101 (2007)). The relative polarizations of the pulses were set to be perpendicular (ZZYY). The waiting time (τ2) between the first two pulses and the third pulse was fixed at 150 fs. The coherence time between the first and the second pulse was scanned in 4 fs steps from −60 fs to 2.8 ps and 2.0 ps for rephasing and non-rephasing spectra, respectively. […]
2D IR spectroscopy is analogous to 2D NMR: sequences of ultrafast IR pulses are employed to excite molecular vibrations, and the energy flow from one vibration to others is then detected. […]

Structures are written as SMILES. Entries after “also recorded” stand apart in the source; their conditions may differ.

With `NC1=NC(=O)N([C@H]2C[C@H](O)[C@@H](CO)O2)CN1` [KP1212, 5-aza-5,6-dihydro-2′-deoxycytidine], the “tautomerism by FTIR and 2D IR” value was “multiple tautomeric forms; also recorded: different tautomeric forms”.

The record behind these values is patent US9283242B2, “Uses of dihydro bases” (priority 2013, dated 2016).
